Test systems include MDA-N; SW-620 colon; MDA-MB-231 breast; SK-MEL-5 melanoma; RPMI-8226 leukemia; A498 renal; HCC-2998 colon; K-562 leukemia; NCI-H23 lung; ACHN renal; BT-549 breast.
Experiment in all cases: NCI tumour cell line growth inhibition, 48 h

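Step 1: Grow cells in 96-well plates. Step 2: Expose to compound for 48 hours at 5 concentrations. Step 3: Interpolate endpoints linearly; if unreached, use highest concentration. TGI: total growth inhibition.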

In the case of `CSc1nc2c(c(=O)n1C)N=C(c1ccc(Cl)cc1)CC(c1ccccc1)N2` (stereo not given), the TGI was 30.3 µM in the test with MDA-N; greater than 100 µM with SW-620 colon; 27.3 µM in the test on MDA-MB-231 breast; 33.7 µM with SK-MEL-5 melanoma; 47.8 µM in the test on RPMI-8226 leukemia; greater than 100 µM in the test on A498 renal. For the same compound, the TGI is 53.1 µM in the test with HCC-2998 colon; 53.2 µM in the test on K-562 leukemia; 62 µM in the test with NCI-H23 lung; 44.6 µM in the test on ACHN renal; 56.1 µM in the test on BT-549 breast.
Consider `CN(C)Cc1cc(C(C)(C)C)cc(CNC2CCCCC2)c1O`, for which the TGI in the test with MDA-N is greater than 100 µM; with SW-620 colon, greater than 100 µM; in the test on MDA-MB-231 breast it was greater than 100 µM; with SK-MEL-5 melanoma, 30.2 µM; in the test with RPMI-8226 leukemia, 57.9 µM; in the test on A498 renal, greater than 100 µM. Moreover, the TGI was 23.7 µM in the test with HCC-2998 colon; 76.2 µM with K-562 leukemia; greater than 100 µM in the test with NCI-H23 lung; greater than 100 µM in the test on ACHN renal; greater than 100 µM in the test on BT-549 breast.
Consider `COc1ccc(-c2cc(C3CC3)nc(SCC(=O)O)c2C#N)cc1`, for which the TGI in the test with MDA-N, in the test on SW-620 colon, in the test on MDA-MB-231 breast, in the test with SK-MEL-5 melanoma, in the test on RPMI-8226 leukemia and in the test with A498 renal was greater than 100 µM in each case. The TGI in the test with HCC-2998 colon, with K-562 leukemia, in the test on NCI-H23 lung, in the test on ACHN renal and in the test on BT-549 breast was greater than 100 µM in each case.
`OCCN1CN(c2nc(N3CN(CCO)C3)nc(N3CN(CCO)C3)n2)C1`: the TGI with MDA-N is 32.3 µM; in the test on SW-620 colon it was greater than 100 µM; with MDA-MB-231 breast, 36.6 µM; in the test with SK-MEL-5 melanoma, 33.4 µM; with RPMI-8226 leukemia, greater than 100 µM; in the test on A498 renal, 96.2 µM. Besides, the TGI with HCC-2998 colon is 41.7 µM; in the test with K-562 leukemia it was 87.3 µM; in the test on NCI-H23 lung, 50 µM; in the test on ACHN renal it was 95.3 µM; in the test on BT-549 breast, 70.8 µM.
Take `c1ccc2c(c1)CCN(C1=NCCO1)C2`: the TGI in the test with MDA-N, with SW-620 colon, with MDA-MB-231 breast, in the test on SK-MEL-5 melanoma, with RPMI-8226 leukemia and in the test on A498 renal was greater than 10 µM in each case. Further, the TGI in the test with HCC-2998 colon, in the test on K-562 leukemia, in the test on NCI-H23 lung, in the test on ACHN renal and in the test with BT-549 breast was greater than 10 µM in each case.
Regarding `O=C(O)CS(=O)c1ccc2c3c(cccc13)C(=O)c1ccccc1-2` (stereo not given), the TGI in the test with MDA-N, with SW-620 colon, with MDA-MB-231 breast, in the test with SK-MEL-5 melanoma, with RPMI-8226 leukemia and with A498 renal was greater than 100 µM throughout. Also, the TGI in the test with HCC-2998 colon, in the test with K-562 leukemia, in the test with NCI-H23 lung, in the test with ACHN renal and in the test with BT-549 breast was greater than 100 µM throughout.
In the case of `COC(=O)C1=COC(C)C2C[n+]3ccc4c([nH]c5ccccc54)c3CC12` (stereo not given), the TGI in the test with MDA-N, in the test on SW-620 colon, in the test with MDA-MB-231 breast, in the test on SK-MEL-5 melanoma, with RPMI-8226 leukemia and in the test with A498 renal was greater than 100 µM in each case. Also, the TGI in the test with HCC-2998 colon, in the test with K-562 leukemia, with NCI-H23 lung, in the test on ACHN renal and with BT-549 breast was greater than 100 µM in each case.
Turning to `CCOP(=O)(CC1CC(O)(CNc2cc(Cl)nc(N)n2)C1)OCC` (stereo not given), the TGI with MDA-N, with SW-620 colon, in the test with MDA-MB-231 breast, with SK-MEL-5 melanoma, in the test on RPMI-8226 leukemia and in the test with A498 renal was greater than 100 µM throughout. Further, the TGI with HCC-2998 colon, in the test on K-562 leukemia, in the test on NCI-H23 lung, with ACHN renal and in the test on BT-549 breast was greater than 100 µM each time.
On to `CN1[C@@H]2CCCC[C@H]2N(C)P1(=O)C(O)/C=C/c1ccccc1` (stereo not given in full), for which the TGI in the test on MDA-N, in the test with SW-620 colon, with MDA-MB-231 breast, in the test with SK-MEL-5 melanoma, in the test with RPMI-8226 leukemia and in the test on A498 renal was greater than 100 µM throughout. Further, the TGI in the test with HCC-2998 colon, in the test with K-562 leukemia, in the test with NCI-H23 lung, in the test on ACHN renal and with BT-549 breast was greater than 100 µM each time.
With `Nc1nc2cc(CNc3ccc(C(=O)O)cc3)ccc2nc1-c1ccccc1`, the TGI with MDA-N, in the test on SW-620 colon, with MDA-MB-231 breast, with SK-MEL-5 melanoma, with RPMI-8226 leukemia and with A498 renal was greater than 100 µM throughout. Further, the TGI in the test with HCC-2998 colon, in the test on K-562 leukemia, with NCI-H23 lung, with ACHN renal and with BT-549 breast was greater than 100 µM throughout.

Values taken from PubChem BioAssay (NCI).
